What was measured:
[1] = collapse temperature of frozen solutions (freeze dry microscopy); type: physicochemical
Description: The term, "collapse temperature," describes the glass transition temperature for amorphous solids or eutectic temperature for crystalline solids. Collapse temperature is that temperature above which the product is not completely frozen. Freeze dry microscoscropy enables measurement of the temperature at which frozen solutions begin to lose their rigid structure during a sublimation process.

[2] = solubility of Compound (I) (statement); type: physicochemical
Description: Storage of a pharmaceutical composition of Compound (I) prepared by known methods may lead to degradation of its content and a coloring and a worsening of its reconstitution properties, especially in the case of injections to be dissolved before use. It is difficult to provide a pharmaceutical composition of Compound (I) which has good stability and a good reconstitution property, especially for injections of Compound (I) to be dissolved before use, after long storage at room temperature.

[3] = tested on: human non-pancreatic secretory phospholipase A2 (sPLA2); settings: as disclosed in JP-A 7-285933, EP 0 675 110 A1, U.S. Pat. No. 5,654,326; cited from earlier work

With `CCc1c(C(=O)C(N)=O)c2c(OCC(=O)[O-])cccc2n1Cc1ccccc1.[Na+]` [Compound (I), sodium [[3-(2-amino-1,2-dioxoethyl)-2-ethyl-1-(phenylmethyl)-1H-indol-4-yl]oxy]acetate] the collapse temperature ([1]; after annealing) was “about -13 °C”, the collapse temperature ([1]; before annealing) was “about -33 °C” and the solubility [2] was “sparingly soluble”. The “inhibitor against human non-pancreatic secretory phospholipase A2” value [3] was “inhibitor”.

From patent US6166062A, “Pharmaceutical compositions containing phospholipase inhibitor” (Shionogi & Co., Ltd., priority 1999, dated 2000)
